Here are results for four molecules from patent publication US20220323406A1, “METHODS AND COMPOSITIONS FOR DIFFERENTIATING STEM CELLS” (Massachusetts Institute of Technology, priority 2019, published 2022).

One test relates to ENR+CD organoids. The test can be described thus: Primary screen: ATP (CellTiter-Glo 3D, CTG) cell number/viability, 2.5-D 384-well ENR+CD organoids.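 Note: compounds given at plating and again on day 3 over a 6-day differentiation from ENR+CV stem-cell-enriched precursors, ATP measured on day 6, plate median as control.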
The test system of test [1] is ENR+CD organoids (ISC to Paneth cell differentiation). The test is described as follows: Primary screen: basal (non-stimulated) lysozyme secretion LYZ.NS, 2.5-D 384-well ENR+CD organoid differentiation. Type of test: cell-based, mouse. An excerpt:
(§1) High-throughput screening.

For test [2] the test system is unchanged. The test is described as follows: Primary screen: CCh-stimulated lysozyme secretion LYZ.S, 2.5-D 384-well ENR+CD organoid differentiation. Type of test: cell-based, mouse. Particulars: primary screen.
Text: as §1

[3] abbreviates: primary screen, standard z score, dose 0.08 uM.
The mark [4] stands for this setting: primary screen, standard z score, dose 0.40 uM.
The mark [5] stands for this setting: primary screen, standard z score, dose 2.00 uM.
Where [6] appears, read: primary screen, standard z score, dose 10.00 uM.
Setting [7] is: primary screen, dose 0.08 uM, standard z score.
Setting [8] is: primary screen, dose 0.40 uM, standard z score.
Where [9] appears, read: primary screen, dose 2.00 uM, standard z score.
Setting [10] is: primary screen, dose 10.00 uM, standard z score.
Where [11] appears, read: primary screen; dose 0.08 uM; FC vs plate median.
The mark [12] stands for this setting: primary screen; dose 0.40 uM; FC vs plate median.
Where [13] appears, read: primary screen; dose 2.00 uM; FC vs plate median.
Where [14] appears, read: primary screen; dose 10.00 uM; FC vs plate median.

Consider `CS(=O)(=O)N1CCN(Cc2cc3nc(-c4cccc5[nH]ncc45)nc(N4CCOCC4)c3s2)CC1` [GDC-0941], for which the Dose.FC.CTG is reported as 0.283 log2 fold change in the test on ENR+CD organoids (primary screen, dose 0.08 uM); 0.022 log2 fold change in the test with ENR+CD organoids (primary screen, dose 0.40 uM); −0.197 log2 fold change in the test on ENR+CD organoids (primary screen, dose 2.00 uM); −1.223 log2 fold change with ENR+CD organoids (primary screen, dose 10.00 uM). In addition, the Z.CTG in the test on ENR+CD organoids (setting [3]) is on record as 0.677; in the test on ENR+CD organoids (setting [4]), 0.053; in the test on ENR+CD organoids (setting [5]), −0.472; in the test on ENR+CD organoids (setting [6]), −2.921. Moreover, the Dose.FC.LYZ.NS in test [1] (primary screen, dose 0.08 uM) is given as 0.008 log2 fold change; in test [1] (primary screen, dose 0.40 uM) it was −0.013 log2 fold change; in test [1] (primary screen, dose 2.00 uM), −0.128 log2 fold change; in test [1] (primary screen, dose 10.00 uM), −0.156 log2 fold change. Moreover, the Z.LYZ.NS in test [1] (setting [3]) is listed as 0.070; in test [1] (setting [4]) it was −0.112; in test [1] (setting [5]), −1.113; in test [1] (setting [6]) it was −1.362. Further, the Dose.FC.LYZ.S in test [2] (dose 0.08 uM) is listed as 0.018 log2 fold change; in test [2] (dose 0.40 uM) it was −0.076 log2 fold change; in test [2] (dose 2.00 uM) it was −0.248 log2 fold change; in test [2] (dose 10.00 uM) it was −0.257 log2 fold change.

Take `CCN1CCN(c2ccc(Nc3cc(N(C)C(=O)Nc4c(Cl)c(OC)cc(OC)c4Cl)ncn3)cc2)CC1` [BGJ398 (NVP-BGJ398)]: the Dose.FC.CTG is −0.054 log2 fold change with ENR+CD organoids (primary screen, dose 0.08 uM); 0.026 log2 fold change in the test on ENR+CD organoids (primary screen, dose 0.40 uM); −0.185 log2 fold change in the test with ENR+CD organoids (primary screen, dose 2.00 uM); −1.500 log2 fold change with ENR+CD organoids (primary screen, dose 10.00 uM). The “Z.CTG (standard z score)” value in the test on ENR+CD organoids (primary screen, dose 0.08 uM) is −0.128; with ENR+CD organoids (primary screen, dose 0.40 uM) it was 0.063; in the test on ENR+CD organoids (primary screen, dose 2.00 uM), −0.442; in the test on ENR+CD organoids (primary screen, dose 10.00 uM), −3.583. Besides, the Dose.FC.LYZ.NS was −0.002 log2 fold change in test [1] (primary screen, dose 0.08 uM); −0.060 log2 fold change in test [1] (primary screen, dose 0.40 uM); −0.052 log2 fold change in test [1] (primary screen, dose 2.00 uM); −0.269 log2 fold change in test [1] (primary screen, dose 10.00 uM). In addition, the “Z.LYZ.NS (standard z score)” value in test [1] (primary screen, dose 0.08 uM) is given as −0.017; in test [1] (primary screen, dose 0.40 uM) it was −0.520; in test [1] (primary screen, dose 2.00 uM) it was −0.450; in test [1] (primary screen, dose 10.00 uM), −2.345. In addition, the Dose.FC.LYZ.S in test [2] (dose 0.08 uM) is on record as −0.036 log2 fold change; in test [2] (dose 0.40 uM), 0.002 log2 fold change; in test [2] (dose 2.00 uM), −0.062 log2 fold change; in test [2] (dose 10.00 uM), −0.350 log2 fold change.

For `O=[N+]([O-])C=Cc1ccc2c(c1)OCO2`, the Z.CTG with ENR+CD organoids (setting [7]) is −0.037; in the test on ENR+CD organoids (setting [8]) it was 0.146; in the test with ENR+CD organoids (setting [9]) it was 0.148; in the test with ENR+CD organoids (setting [10]), −0.469. In addition, the Dose.FC.CTG in the test on ENR+CD organoids (setting [11]) is −0.016 log2 fold change; with ENR+CD organoids (setting [12]), 0.061 log2 fold change; with ENR+CD organoids (setting [13]) it was 0.062 log2 fold change; in the test on ENR+CD organoids (setting [14]), −0.197 log2 fold change. In addition, the Z.LYZ.NS in test [1] (setting [7]) is 0.499; in test [1] (setting [8]), −0.088; in test [1] (setting [9]) it was 0.347; in test [1] (setting [10]) it was −1.307. In addition, the Dose.FC.LYZ.NS is listed as 0.057 log2 fold change in test [1] (setting [11]), −0.010 log2 fold change in test [1] (setting [12]), 0.040 log2 fold change in test [1] (setting [13]) and −0.150 log2 fold change in test [1] (setting [14]). Further, the Dose.FC.LYZ.S in test [2] (dose 0.08 uM, FC vs plate median) was 0.076 log2 fold change; in test [2] (dose 0.40 uM, FC vs plate median), 0.100 log2 fold change; in test [2] (dose 2.00 uM, FC vs plate median), 0.019 log2 fold change; in test [2] (dose 10.00 uM, FC vs plate median), −0.179 log2 fold change.

For `CC(C)CCN1c2nc(Nc3cc(F)c(O)c(F)c3)ncc2N(C)C(=O)C1C` (centres unmarked) [BI-D1870], the Dose.FC.CTG in the test on ENR+CD organoids (primary screen, dose 0.08 uM) is on record as 0.186 log2 fold change; in the test on ENR+CD organoids (primary screen, dose 0.40 uM) it was 0.029 log2 fold change; in the test on ENR+CD organoids (primary screen, dose 2.00 uM), −0.012 log2 fold change; in the test with ENR+CD organoids (primary screen, dose 10.00 uM) it was −0.700 log2 fold change. Further, the “Z.CTG (standard z score)” value in the test with ENR+CD organoids (primary screen, dose 0.08 uM) is recorded as 0.444; with ENR+CD organoids (primary screen, dose 0.40 uM), 0.069; in the test with ENR+CD organoids (primary screen, dose 2.00 uM), −0.028; in the test with ENR+CD organoids (primary screen, dose 10.00 uM) it was −1.673. The Dose.FC.LYZ.NS in test [1] (primary screen, dose 0.08 uM) is recorded as 0.141 log2 fold change; in test [1] (primary screen, dose 0.40 uM), 0.126 log2 fold change; in test [1] (primary screen, dose 2.00 uM), −0.066 log2 fold change; in test [1] (primary screen, dose 10.00 uM) it was −0.285 log2 fold change. The “Z.LYZ.NS (standard z score)” value in test [1] (primary screen, dose 0.08 uM) is listed as 1.225; in test [1] (primary screen, dose 0.40 uM), 1.099; in test [1] (primary screen, dose 2.00 uM), −0.574; in test [1] (primary screen, dose 10.00 uM) it was −2.483. In addition, the Dose.FC.LYZ.S in test [2] (dose 0.08 uM) is 0.162 log2 fold change; in test [2] (dose 0.40 uM), 0.158 log2 fold change; in test [2] (dose 2.00 uM), 0.008 log2 fold change; in test [2] (dose 10.00 uM), −0.378 log2 fold change.
